Assay: Hepatocyte stability assay
Assay type: in vitro ADME, Mouse
Method: Human LiverPoolTM 20-donor, dog and mouse cryopreserved hepatocytes were obtained from BioreclamationIVT. Cryopreserved hepatocytes were removed from the liquid nitrogen tank and thawed in a 37°C water bath. As soon as the cells pulled away from the vial wall, they were decanted into 48 ml of warm HT medium. Cells were centrifuged for four minutes at 420 rpm (50 g). After the supernatant was removed, the pellet was re-suspended in warm DMEM medium. Cell density was counted by a hemacytometer. The assay was carried out in 96-well microtiter plates. MK256 was incubated for 0, 60, 120, and 180 minutes at 37°C with hepatocytes. Reaction mixtures (50 μL) contained a final concentration of 1 μM MK256, 0.5 million cells/mL hepatocytes in the DMEM medium. At each time point (for example, 0, 1, 2, and 3 hrs), 200 μL of quench solution (100% acetonitrile with 0.1% formic acid) with internal standard were transferred to each well. […] All samples were analyzed on LC/MS/MS using an AB Sciex API 4000 instrument, coupled to a Shimadzu LC-20AD LC Pump system. […] The extent of metabolism was calculated as the disappearance of the test compound, compared to the 0-min control reaction incubations. Initial rates were calculated for the compound concentration and used to determine t1/2 values and subsequently, the intrinsic clearance, CLint = (0.693)(1/t1/2 (min))(mL incubation/million cells).

With `Nc1nccc2c(Br)cc3cc(C(=O)O)ccc3c12` [MK256] the “Clint (μL·min^−1·mg protein^−1)” value (Mouse hepatocytes) was 5 μL·min^−1·mg protein^−1 and the half-life at 1 µM (mouse, cryopreserved mouse hepatocytes, read-out: T½) was 5.18 h.

Source: PMC9629815, “MK256 is a novel CDK8 inhibitor with potent antitumor activity in AML through downregulation of the STAT pathway” (Oncotarget, 2022)
